Where “and” joins values, the source holds several entries; their conditions need not be identical. Equal entries are not always repeated. Structures can show the parent of a compound that is named as a salt.
Experiments:
[1] = molecular target: Replicase polyprotein 1ab (Middle East respiratory syndrome-related coronavirus (isolate UnitedKingdom/H123990006/2012) (Betacoronavirus England 1) (Humancoronavirus EMC)) (UniProt K9N7C7); settings: at 10 µM
[2] = molecular target: Chymotrypsin (Homo sapiens) (UniProt Q99895+P17538+P40313+Q6GPI1); assay: Chymotrypsin inhibition percentage at 10 µM by FRET kind of response from peptide substrate; format: functional
Chymotrypsin (Homo sapiens), sequence (Q6GPI1 whole entry, looked up, chain 1 of 4): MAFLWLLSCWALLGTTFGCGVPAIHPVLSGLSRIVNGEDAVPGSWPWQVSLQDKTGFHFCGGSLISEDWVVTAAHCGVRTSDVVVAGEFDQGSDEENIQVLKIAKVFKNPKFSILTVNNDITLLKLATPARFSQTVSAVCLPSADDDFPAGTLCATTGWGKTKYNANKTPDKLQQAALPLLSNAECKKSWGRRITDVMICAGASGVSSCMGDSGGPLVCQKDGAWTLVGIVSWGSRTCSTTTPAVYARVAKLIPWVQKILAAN
Chymotrypsin (Homo sapiens), sequence (P40313 whole entry, looked up, chain 2 of 4): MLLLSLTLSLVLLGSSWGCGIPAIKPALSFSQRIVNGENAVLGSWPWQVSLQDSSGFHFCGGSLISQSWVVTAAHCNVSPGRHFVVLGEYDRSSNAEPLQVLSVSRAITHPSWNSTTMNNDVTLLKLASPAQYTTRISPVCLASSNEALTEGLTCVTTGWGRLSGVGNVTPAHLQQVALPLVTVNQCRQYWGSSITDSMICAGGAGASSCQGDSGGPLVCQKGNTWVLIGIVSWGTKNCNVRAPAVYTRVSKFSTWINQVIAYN
Chymotrypsin (Homo sapiens), sequence (P17538 whole entry, looked up, chain 3 of 4): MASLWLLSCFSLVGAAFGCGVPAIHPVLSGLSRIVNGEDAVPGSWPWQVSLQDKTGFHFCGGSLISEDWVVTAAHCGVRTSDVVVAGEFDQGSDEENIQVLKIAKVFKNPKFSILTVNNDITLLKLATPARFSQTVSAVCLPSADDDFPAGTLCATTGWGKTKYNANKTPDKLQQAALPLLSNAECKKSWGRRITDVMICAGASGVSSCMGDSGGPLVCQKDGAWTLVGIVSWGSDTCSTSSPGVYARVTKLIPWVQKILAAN
Chymotrypsin (Homo sapiens), sequence (Q99895 whole entry, looked up, chain 4 of 4): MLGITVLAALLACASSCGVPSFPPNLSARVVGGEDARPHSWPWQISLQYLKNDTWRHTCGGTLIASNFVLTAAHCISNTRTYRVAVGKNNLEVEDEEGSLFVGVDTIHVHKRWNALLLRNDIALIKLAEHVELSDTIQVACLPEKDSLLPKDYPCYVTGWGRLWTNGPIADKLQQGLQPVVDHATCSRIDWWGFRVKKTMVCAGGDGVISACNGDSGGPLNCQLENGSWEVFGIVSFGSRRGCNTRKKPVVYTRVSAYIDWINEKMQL

[3] = molecular target: Replicase polyprotein 1ab (Middle East respiratory syndrome-related coronavirus (isolate UnitedKingdom/H123990006/2012) (Betacoronavirus England 1) (Humancoronavirus EMC), UniProt K9N7C7); assay: biochemical; format: functional
Replicase polyprotein 1ab (Middle East respiratory syndrome-related coronavirus (isolate UnitedKingdom/H123990006/2012) (Betacoronavirus England 1) (Humancoronavirus EMC), UniProt K9N7C7), sequence (K9N7C7 3248-3553 limits assumed): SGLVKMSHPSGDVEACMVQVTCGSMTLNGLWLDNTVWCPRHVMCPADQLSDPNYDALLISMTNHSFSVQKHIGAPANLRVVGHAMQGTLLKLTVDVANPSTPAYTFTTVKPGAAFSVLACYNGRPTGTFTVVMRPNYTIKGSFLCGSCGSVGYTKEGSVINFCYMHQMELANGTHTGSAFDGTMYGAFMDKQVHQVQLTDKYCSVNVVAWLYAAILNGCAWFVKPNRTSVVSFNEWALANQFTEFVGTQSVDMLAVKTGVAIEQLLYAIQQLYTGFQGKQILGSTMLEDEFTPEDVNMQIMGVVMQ

[4] = molecular target: Replicase polyprotein 1ab (Severe acute respiratory syndrome coronavirus 2, UniProt P0DTD1); assay: biochemical; format: functional

Molecule | inhibition [2] | IC50 [3] | inhibition [1] | further results
[O-][n+]1ccccc1S | 8.11% | – | – | inhibition ([1]; tested as the Zn salt or complex): 42%
CCCCn1c(NC(=O)c2cccs2)c(C#N)c2nc3ccccc3nc21 | -3.7% | – | – | –
COc1ccc2[nH]c([S+]([O-])Cc3ncc(C)c(OC)c3C)nc2n1 (stereo unspecified) [TENATOPRAZOLE] | – | > 10 µM | 0% | –
CN1CCc2cccc3c2[C@H]1Cc1ccc(O)c(O)c1-3 [APOMORPHINE HYDROCHLORIDE] | – | > 10 µM | 6% | –
Oc1cc2c(cc1O)[C@@H]1c3ccc(O)c(O)c3OC[C@]1(O)C2 [HEMATOXYLIN] | – | > 10 µM | 5% | –
AUROTHIOGLUCOSE | – | 10 µM | – | IC50 [4]: 1.74 µM
CC(C)N(CCC(=O)c1ccc2ccccc2c1)Cc1ccccc1 | – | 8.1 µM | – | –
Sc1nc2ccccc2s1 [2-MERCAPTOBENZOTHIAZOLE] | – | > 10 µM | 0% | –
hemin | 6.35% | – | 7% | –
Oc1ccc2ccccc2c1SSc1c(O)ccc2ccccc12 | – | > 10 µM | 6% | –
CN(C)C(=S)SC(=S)N(C)C [BIS(DIMETHYLAMINETHIOCARBONYL)MONOSULFIDE] | – | > 10 µM | 0% | –
Cc1cc(C)cc(N2C(=O)CC(Sc3nc[nH]n3)C2=O)c1 (stereo unspecified) | 2.86% | – | – | –
O=c1cc(-c2ccc(O)cc2)oc2cc(O)cc(O)c12 [APIGENIN] | – | > 10 µM | 17% | –
O=C1C2CC=CCC2C(=O)N1SC(Cl)(Cl)Cl (stereo unspecified) [CAPTAN] | – | > 10 µM | 5% | –
O=c1cc(-c2ccccc2)oc2cc(O)c(O)c(O)c12 [BAICALEIN] | – | > 10 µM | 47% | –
COc1cccc(C(=O)CCN[C@@H](C)[C@H](O)c2ccccc2)c1 | – | > 10 µM | 19% | –
NC(CO)C(=O)NNCc1ccc(O)c(O)c1O (stereo unspecified) [BENSERAZIDE HYDROCHLORIDE] | 0.39% | > 10 µM | 9% | –
O=C(/C=C/c1ccc(O)c(O)c1)O[C@H](Cc1ccc(O)c(O)c1)C(=O)O [ROSMARINIC ACID] | – | > 10 µM | 19% | –
O=[N+]([O-])C(Br)(CO)CO [BRONOPOL] | – | > 10 µM | 14% | –
O=c1c(O)c(-c2cc(O)c(O)c(O)c2)oc2cc(O)cc(O)c12 [MYRICETIN] | 3.78% | > 10 µM | 5% | –
O=[N+]([O-])c1cnc(Sc2nnc(O)n2-c2ccc3c(c2)OCCO3)s1 | – | 3.8 µM | – | –
THIMEROSAL [listing 1 of 2 here] | – | – | 46% | –

Molecule | inhibition [2] | IC50 [3] | inhibition [1] | further results
O=C(O)c1cc(O)c2c(c1)[C@H]([C@H]1c3cc(C(=O)O)cc(O)c3C(=O)c3c(O[C@@H]4O[C@H](CO)[C@@H](O)[C@H](O)[C@H]4O)cccc31)c1cccc(O[C@@H]3O[C@H](CO)[C@@H](O)[C@H](O)[C@H]3O)c1C2=O [Sennoside A] | 2.66% | > 10 µM | 42% | –
Cc1ccccc1N(C)C(=O)c1ccc([S+]([O-])c2nccs2)c([N+](=O)[O-])c1 (stereo unspecified) | 0.13% | > 10 µM | 7% | –
O=C(c1ccc(/C=C/c2n[nH]c3ccccc23)cc1)N1CCNCC1 [KW-2449] | 3.6% | 3.6 µM | – | –
CCc1ccc(/C=C/C(=O)Nc2ccc(C(C)=O)cc2)o1 | – | – | – | IC50 [4]: 4.95 µM
O=C1C=CC(=O)C2=C1C1c3ccccc3C2c2ccccc21 | – | > 10 µM | 45% | –
C[C@H]1COc2c(N3CCN(C)CC3)c(F)cc3c(=O)c(C(=O)O)cn1c23 [LEVOFLOXACIN] | 1.29% | 7.6 µM | – | –
CCCCCCNC(=O)n1cc(F)c(=O)[nH]c1=O | 14% | – | – | –
N#CSc1cc(SC#N)c(N)nc1N | 4.59% | 2.3 µM | – | –
CN(C)CCNc1nc2cc(O)ccc2c2c1C(=O)c1ccccc1-2 | – | > 10 µM | 0% | –
CCC(=O)OCN1C(=O)C=CC1=O | – | > 10 µM | 0% | –
Oc1c(I)cc(I)c(O)c1I | – | > 10 µM | 0% | –
Auranofin | 8.63% | – | 27% | –
C[n+]1cc2c3c(ccc2c2ccc4cc5c(cc4c21)OCO5)OCO3 [SANGUINARIUM CHLORIDE] | – | > 10 µM | 32% | –
CC(C)(C)c1ccc(S(=O)(=O)/C=C/C#N)cc1 [BAY-11-7085] | – | > 10 µM | 0% | –
Nc1cc2c3ccccc3ccc2c2ccccc12 | -3.88% | > 10 µM | 3% | –
O=C1c2c(O)cc(O)cc2O[C@H](c2cc(O)c(O)c(O)c2)[C@H]1O [AMPELOPSIN] | – | > 10 µM | 18% | –
COCCCOc1ccnc(C[S+]([O-])c2nc3ccccc3[nH]2)c1C (stereo unspecified) [RABEPRAZOLE SODIUM] | – | > 10 µM | 46% | –
C=CC(=O)c1ccc2ccccc2c1 | – | > 10 µM | 26% | –
CN(C)C(=S)SSC(=S)N(C)C [THIRAM] | – | > 10 µM | 48% | –
O=C(O)CCCCCCCCCCCCCCc1ccc(I)cc1 [IOCANLIDIC ACID] | – | > 10 µM | 0% | –
C[C@@H]1O[C@@H](O[C@@H]2[C@@H](O)[C@H](OCCc3ccc(O)c(O)c3)O[C@H](CO)[C@H]2OC(=O)/C=C/c2ccc(O)c(O)c2)[C@H](O)[C@H](O)[C@H]1O [ACETOSIDE] | – | – | – | IC50 [4]: 4.54 µM
O=C(O[C@@H]1Cc2c(O)cc(O)cc2O[C@@H]1c1cc(O)c(O)c(O)c1)c1cc(O)c(O)c(O)c1 [EPIGALOCATECHIN GALLATE] | -0.5% | > 10 µM | 10% and 16% | –

Molecule | inhibition [2] | IC50 [3] | inhibition [1] | further results
CCC(C)SSc1ncc[nH]1 (stereo unspecified) [PX-12] | – | 7.6 µM | – | –
Nc1nnc(Sc2ncc([N+](=O)[O-])s2)s1 | – | > 10 µM | 45% | –
C[C@@H]1O[C@@H](Oc2c(-c3cc(O)c(O)c(O)c3)oc3cc(O)cc(O)c3c2=O)[C@@H](O)[C@H](O)[C@H]1O | – | – | – | IC50 [4]: 3.66 µM
O=c1sn(-c2cccc3ccccc23)c(=O)n1Cc1ccccc1 [TIDEGLUSIB] | 30.7% | > 10 µM | 22% and 0% | –
CN1CC[C@@]2(C)c3cc(O)ccc3N(C)[C@@H]12 | – | > 10 µM | 41% | –
ACRIFLAVINE HYDROCHLORIDE | 22% | – | – | –
O=C(CC1Sc2ncnn2C1=O)Nc1ccc(Br)cc1 (stereo unspecified) | 8.42% | – | – | –
Cc1ccc(C)c(-n2sc3cc(F)ccc3c2=O)c1 | -0.52% | – | – | –
CNC(=O)ON(C(C)=O)C(=O)NC [CARACEMIDE] | – | > 10 µM | 8% | –
O=C(CCl)c1ccccc1 | 7.75% | – | – | –
O=C(O)c1ccc(SSc2ccc(C(=O)O)cn2)nc1 | – | > 10 µM | 8% | –
CCN1CCN(C(c2ccc(C(F)(F)F)cc2)c2ccc3cccnc3c2O)CC1 (stereo unspecified) | 3.72% | – | – | –
O=[N+]([O-])c1ccc(Sc2cccc[n+]2[O-])c2nonc12 | 4.87% | – | – | –
CC(Cc1ccc(O)c(O)c1)C(C)Cc1ccc(O)c(O)c1 (stereo unspecified) [NORDIHYDROGUAIARETIC ACID] | – | > 10 µM | 0% | –
THIMEROSAL [listing 2 of 2 here] | – | > 10 µM | – | –
Oc1cc2c(cc1O)C(c1ccccc1)CNCC2 (stereo unspecified) | 8.97% | > 10 µM | 5% | –
C[n+]1c2cc(N)ccc2cc2ccc(N)cc21 [EUFLAVINE] | – | – | – | IC50 [4]: 4.98 µM
CC(C)c1ccc2oc3nc(N)c(C(=O)O)cc3c(=O)c2c1 [AMLEXANOX] | 4.03% | > 10 µM | 0% | –
Oc1cc(O)cc(/C=C/c2ccc(O)c(O)c2)c1 [PICEATANNOL] | – | > 10 µM | 24% | –
CCOC(=O)Cc1ccc(-c2ccccc2)cc1 | -0.88% | > 10 µM | 18% | –
c1ccc2sc(SSc3nc4ccccc4s3)nc2c1 | 5.04% | – | – | –
O=C1C(Cl)=C(N2CCOCC2)C(=O)N1c1ccc(Cl)c(Cl)c1 | 7.24% | > 10 µM | 0% | –

Molecule | inhibition [2] | IC50 [3] | inhibition [1] | further results
CISPLATIN | – | – | – | IC50 [4]: 3.82 µM
PHENYLMERCURIC ACETATE | 8.59% | – | 4% | –
Nc1ccc(S(=O)(=O)Nc2ncccn2)cc1 [SULFADIAZINE, SILVER] | – | – | – | IC50 ([3]; tested as the Ag salt or complex): > 10 µM
MERBROMIN | 10.5% | – | 0% | –
O=C(/C=C/c1ccc(O)c2c1[C@@H](C(=O)O[C@H](Cc1ccc(O)c(O)c1)C(=O)O)[C@H](c1ccc(O)c(O)c1)O2)O[C@H](Cc1ccc(O)c(O)c1)C(=O)O | – | – | – | IC50 [4]: 3.42 µM
COc1nc2ccc(Br)cc2cc1[C@@H](c1ccccc1)[C@@](O)(CCN(C)C)c1cccc2ccccc12 [BEDAQUILINE] | – | – | – | IC50 [4]: 4.36 µM
Cn1sc(=O)n(Cc2ccccc2)c1=O | 4.03% | – | – | –
Oc1cc2c(cc1O)[C@H]1c3ccccc3CN[C@@H]1CC2 [DIHYDREXIDINE HYDROCHLORIDE] | – | > 10 µM | 19% | –
COc1cc(C(=S)N2CCOCC2)ccc1O [VANITIOLIDE] | – | > 10 µM | 0% | –
O=c1c2ccccc2[se]n1-c1ccccc1 [EBSELEN] | – | > 10 µM | 14% | –
C=C1C(=O)[C@]23[C@H](O)[C@H]1CC[C@@H]2[C@@]12CO[C@]3(O)C[C@@H]1C(C)(C)CC[C@@H]2O | – | – | – | IC50 [4]: 2.57 µM
CC[C@H](CO)Nc1nc(NCc2ccc(-c3ccccn3)cc2)c2ncn(C(C)C)c2n1 | – | > 10 µM | 4% | –
COC(=O)CC[C@H](NC(=O)[C@H](CC(=O)OC)NC(=O)OCc1ccccc1)C(=O)N[C@H](C(=O)N[C@@H](CC(=O)OC)C(=O)CF)C(C)C | 11.2% | – | – | –
[O-][S+](c1ccccc1)c1ccc2nnnn2n1 (stereo unspecified) | – | 10.1 µM | – | –
O=C(c1cc(O)c(O)c(O)c1)c1ccc(O)c(O)c1O [EXIFONE] | – | > 10 µM | 0% | –
[O-][n+]1ccccc1S [PYRITHIONE] | – | – | – | IC50 [4]: 0.05 µM
Nc1ccc(O)c2ncccc12 | 4.98% | – | – | –
Oc1cc2c(cc1C(c1ccc(C(F)(F)F)cc1)N1CCOCC1)OCO2 (stereo unspecified) | 7.04% | – | – | –
c1ccc2sc(SNC3CCCCC3)nc2c1 | – | > 10 µM | 0% | –

From ChEMBL document CHEMBL4495564, “Identification of inhibitors of SARS-Cov2 M-Pro enzymatic activity using a small molecule repurposing screen” (2020)
